Laboratory results published in patent US4950647A, “T cell immunopotentiator” (Nucleic Acid Research Institute, priority 1988, dated 1990).

Columns and labels:
[1] = Immune system enhancement / suppression; settings: β analog: at the same concentrations at which the compound is immunostimulatory
[2] = test system: human lymphocytes (peripheral blood mononuclear cells); settings: known; cited from earlier work
macrophages and NK cells = settings: cited from earlier work
B cells = settings: predominantly a subset of mature B lymphocytes; cited from earlier work

Row | Structure (SMILES) | immunosuppressive / immune enhancing effect [1] | activation of lymphocytes to proliferate [2] | activation of macrophages and NK cells (macrophages and NK cells) | stimulation of B cell proliferation (B cells)
1 | Nc1cc2c(ncn2[C@H]2C[C@H](O)[C@@H](CO)O2)c(=O)[nH]1 [2'-deoxy-3-deazaguanosine] | immunosuppressive |  |  | 
2 | Nc1nc2c(ncn2[C@H]2C[C@H](O)[C@@H](CO)O2)c(=O)[nH]1 [2'-deoxyguanosine] | not immune system enhancers |  |  | 
3 | Nc1cc2c(ncn2[C@@H]2O[C@H](CO)[C@@H](O)[C@H]2O)c(=O)[nH]1 [3-deazaguanosine] | not immune system enhancers |  |  | 
4 | Nc1nc2c(nc(Br)n2[C@@H]2O[C@H](CO)[C@@H](O)[C@H]2O)c(=O)[nH]1 [8-bromoguanosine] |  | activate lymphocytes to proliferate | activate macrophages and NK cells | stimulate proliferation of B cells
5 | Nc1nc2c(nc(S)n2[C@@H]2O[C@H](CO)[C@@H](O)[C@H]2O)c(=O)[nH]1 [8-mercaptoguanosine] |  | activate lymphocytes to proliferate |  | stimulate proliferation of B cells
